Results: patent US20220057378A1, “MICROBIAL MICROFLUIDIC BIOSENSOR” (priority 2015, published 2022)
Read-outs that look alike come from different tables or passages of the source.

How the values were obtained:
[1] = test system: E. coli MG1655; format: cell-based; details: for Number DE Genes: false discovery rate below 1%
Description: RNA-Seq results for promoter activation in E. coli MG1655 in response to single and multiple toxin exposures at low and high concentrations: Our analysis of the sequencing data from RNA-Seq experiments to determine candidate genes that are induced upon toxin exposure consisted of three main tasks: sequence alignment, quantification of gene expression, and identification of differentially expressed genes. Sequence alignment: Reads were aligned to the reference E. coli K-12 substr. MG1655 genome using a tolerance of at most two mismatches per alignment to protect against sequencing errors. The alignment was performed using Bowtie software, 5 which is known to be very efficient in aligning reads to a reference genome. Without being limiting, Bowtie software 5 can be used for the alignment. Those skilled in the art will appreciate that there are many such software programs for performing alignments.
Quantification of gene expression: The expression level of each gene was determined as a function of the number of aligned reads mapping to the gene. […] Additionally, we implemented our own algorithms for sequence alignment and quantification of gene expression in order to crosscheck all results.
Identification of differentially expressed genes: Finally, a set of statistical and information theory algorithms were applied in order to extract not only differentially expressed (DE) genes for each toxin with respect to the control samples (pure water) but also toxin-specific genes. DESeq is a standard tool for identifying DE genes that allowed us to select sensitive genes with differential expression between the control samples (pure water) and the cells exposed to toxin. It assumes that the number of counts for each gene across experimental replicates follows a negative binomial distribution (8, 9). We considered genes with a False Discovery Rate (FDR) lower than 1% as DE in order to ensure statistically robust DE genes. […] Additionally, genes with the largest number of counts and expression levels are preferable in order to maximize the signal-to-noise ratio. When it is not possible to find toxin-specific genes, the next generation of good candidates is formed by those genes satisfying the above properties for a small subset of toxins (multiple-toxin response). It is desirable to have single-toxin-specific genes for several of the toxins in the combination in order to determine toxin-specific multi-gene-responses by means of logical operations. […] Therefore, we have developed information theoretic measures to improve the toxin separability. The core idea of the approach is that low entropies (or highly informative genes) correspond to toxin-specific genes, while large entropies (low information) are associated with scenarios in which DE fold-changes across different toxins are similar and should be discarded.
Milestone 2.1: Expose target cells to toxins of interest over four orders of magnitude of concentration and extract RNA: Three strains of bacteria were exposed to relevant levels of all toxins and extracted RNA. The toxin exposure protocol involves first growing a culture of bacterial cells to mid-log phase (OD≤0.2). […] Finally, cellular RNA was stabilized using Qiagen RNA Protect reagent, the cells were centrifuged, and the pellet was frozen at −80° C. To investigate the cellular RNA response to toxin insult, we exposed E. coli MG1655, E. coli LABEC01, and B. subtilis 168 cells to the toxins and concentrations shown in Table 7 and extracted RNA.
Milestone 2.5: Prepare isolated RNA for Illumina sequencing using vendor provided reagents and carry out sequencing: We have prepared libraries and carried out sequencing for all toxins of interest.

[2] = test system: Hg3; assay: microplate specificity test with on- and off-target heavy metals (fluorescence); format: cell-based, E. coli; details: on-target = 1, no-toxin control = 0, As 1.3, Cd 0.44, Cr(VI) 2, Cu 20, Pb 1, Hg 0.1, Co 20, Fe 500, Ni 1.7, Zn 7.6 μM
Description: (§1) Each column represents the fluorescence response of a strain to the on-target metal (normalized to “1”) and all off-target metals, where “0” represents the unchanged response for the no-toxin control.
(§2) Although the ability to sense cobalt, iron, nickel, and zinc is of secondary importance, these heavy metals were included as potential off-target inducers because they may be present in the natural water supply under test. […] This combinatorial logic was implemented in algorithms.

[3] = test system: Pb2; assay: as above; format: cell-based, E. coli; details: on-target = 1, no-toxin control = 0; As 1.3, Cd 0.44, Cr(VI) 2, Cu 20, Pb 1, Hg 0.1, Co 20, Fe 500, Ni 1.7, Zn 7.6 μM
Description: as §1, §2

[4] = test system: As3; assay: as above; format: cell-based, E. coli; details: on-target = 1, no-toxin control = 0; As 1.3, Cd 0.44, Cr(VI) 2, Cu 20, Pb 1, Hg 0.1, Co 20, Fe 500, Ni 1.7, Zn 7.6 μM
Description: as §1, §2

[5] = test system: Cr5; assay: as above; format: cell-based, E. coli; details: on-target = 1, no-toxin control = 0; As 1.3, Cd 0.44, Cr(VI) 2, Cu 20, Pb 1, Hg 0.1, Co 20, Fe 500, Ni 1.7, Zn 7.6 μM
Description: as §1, §2

[6] = test system: Cd1; assay: as above; format: cell-based, E. coli; details: on-target = 1, no-toxin control = 0; As 1.3, Cd 0.44, Cr(VI) 2, Cu 20, Pb 1, Hg 0.1, Co 20, Fe 500, Ni 1.7, Zn 7.6 μM
Description: as §1, §2

[7] = test system: Cu1; assay: as above; format: cell-based, E. coli; details: on-target = 1, no-toxin control = 0; As 1.3, Cd 0.44, Cr(VI) 2, Cu 20, Pb 1, Hg 0.1, Co 20, Fe 500, Ni 1.7, Zn 7.6 μM
Description: as §1, §2

[8] = test system: E. coli MG1655/Pb7; assay: 8-strain chip induction (fluorescence induction ratio); format: cell-based; details: toxin at t=0, pure water at t=2 hours; arsenic 0.2, cadmium 0.05, chromium(VI) 0.5, copper 5, lead 1.8 μM
Description: An overview of the sensor can be seen in FIG. 39. In order to acquire the large amount of data required to successfully train the classifier, five replicates of the fully self-contained device prototype were built, in which the microfluidic devices are mounted and imaged using custom-designed optics as shown in some embodiments herein (Milestone 6.9). The majority of the data for this project was acquired using a novel microfluidic device capable of housing eight different bacterial strains that receive media from a shared source. […] The design was expanded to house 18 strains and we have begun taking data with this new chip to provide larger datasets to the classifier. A detailed CAD drawing of this device can be seen in FIG. 56. The 18 cell trapping regions are vacuum-loaded from 18 downstream fluidic ports. Long, serpentine channels upstream of the trapping regions serve as fluidic buffer zones to prevent the cross-contamination of strains while loading. The toxin concentration is controlled dynamically by a peristaltic pump that mixes a water/toxin combination (representing the source water stream) with a concentrated medium stock.
In each panel, the time series data for the “on-target” responding strain is plotted in bold.

[9] = test system: E. coli MG1655 cells; assay: batch growth curves of cells exposed to toxin around the EPA limit; format: cell-based; details: batch culture, levels around the EPA limit
Description: In determining the toxin concentrations for exposure, EPA limit was explored. […] The general strategy was to examine the cellular RNA response at toxin levels where the cells are responding specifically to the presence of the toxin without triggering a universal (and unspecific) cellular stress response.

Row | Compound | Number DE Genes ([1]; high concentration) | Number DE Genes ([1]; low concentration) | fluorescence response of strain Hg3 (on-target mercury) [2] | fluorescence response of strain Pb2 (on-target lead) [3] | fluorescence response of strain As3 (on-target arsenic) [4] | fluorescence response of strain Cr5 (on-target chromium(VI)) [5] | fluorescence response of strain Cd1 (on-target cadmium) [6] | fluorescence response of strain Cu1 (on-target copper) [7] | GFP response of strain Pb7 [8] | growth phase lag of cells exposed to toxin [9] | further results
1 | [As] [Arsenic] | 14 | 3 | 0.25 | 0.33 | 1.00 | 0.24 | −0.18 | −0.05 | smaller response | – | response of the arsR promoter ([1]; RNA-Seq mean fold change): responds specifically and monotonically to increasing concentrations
2 | [Cd] [Cadmium] | 38 | 132 | −0.26 | 0.46 | −0.13 | −0.02 | 1.00 | −0.08 | much larger response | – | response of the zntA promoter ([1]; RNA-Seq mean fold change): responds monotonically to increasing concentrations
3 | [Cr+6] [Chromium(VI)] | 377 | 270 | −0.96 | 1.69 | −0.22 | 1.00 | 0.62 | −0.06 | equal magnitude but more rapid response | exhibited this growth phase lag | response of the recN promoter ([1]; RNA-Seq mean fold change): only shows sensitivity to high concentrations; response of the sulA promoter ([1]; RNA-Seq mean fold change): only shows sensitivity to high concentrations; response of the umuD promoter ([1]; RNA-Seq mean fold change): only shows sensitivity to high concentrations; fluorescence response of strain Hg3 (on-target mercury) ([2]; listed as chromium(VI)): sensitive
4 | [Cu] [Copper] | 77 | 110 | 0.16 | −0.17 | – | −0.08 | −0.09 | 1.00 | smaller response | delay the onset of the exponential growth phase | response of the cusC promoter ([1]; RNA-Seq mean fold change): responds monotonically to increasing concentrations; response of the cusR promoter ([1]; RNA-Seq mean fold change): only shows sensitivity to high concentrations
5 | [Pb] [Lead] | 489 | 99 | 0.12 | 1.00 | −0.05 | 0.01 | 0.06 | −0.05 | responding | – | response of the mntH promoter ([1]; RNA-Seq mean fold change): responds to high concentrations; response of the shiA promoter ([1]; RNA-Seq mean fold change): responds to high concentrations; response of the ybiI promoter ([1]; RNA-Seq mean fold change): responds specifically and monotonically to increasing concentrations
6 | Mercury | 218 | 165 | 1.00 | 1.44 | −0.18 | 0.58 | −0.09 | −0.05 | – | did not exhibit this growth phase lag | –
